Paper PMC11987024, “Kinetic Steering of Amyloid Formation and Polymorphism by Canagliflozin, a Type-2 Diabetes Drug” (Journal of the American Chemical Society, 2025)
Where a chain is given by its changes, count along the chain named.

Tests used:
[1] = target: T1, Islet amyloid polypeptide (IAPP, or amylin), wild-type (Homo sapiens, UniProt P10997); test: ThT fluorescence amyloid assembly assay; format: biochemical; conditions: 10 μM IAPP, 50 μM compound, 160 mM ammonium acetate pH 7.4, 1% v/v DMSO, 30 °C, quiescent; mainly inhibits primary nucleation
T1 construct: SEC-purified monomer; N-terminally biotinylated at Lys1 (PEG4) for SPR only; cut from pro-islet amyloid polypeptide
T1 sequence (P10997 34-70): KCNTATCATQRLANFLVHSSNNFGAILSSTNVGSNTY

[2] = target: T1, Islet amyloid polypeptide (IAPP, or amylin), wild-type; test: SPR, biotinylated IAPP on streptavidin chip; format: binding
[3] = target: T2, Islet amyloid polypeptide (IAPP, or amylin), wild-type (Homo sapiens, UniProt P10997, S53G); test: ThT fluorescence amyloid assembly assay; format: biochemical; conditions: 160 mM ammonium acetate pH 7.4, 1% v/v DMSO, 30 °C; inhibition of amyloid formation
T2 construct: SEC-purified monomer; N-terminally biotinylated at Lys1 (PEG4) for SPR only; cut from pro-islet amyloid polypeptide
T2 sequence (P10997 34-70 S53G): T1 sequence (P10997 34-70) with S20G

[4] = target: T1, Islet amyloid polypeptide (IAPP, or amylin), wild-type; test: T1ρ and WaterLOGSY ligand-observed NMR; format: binding; conditions: IAPP monomer; 20 μM IAPP, 100 μM compound, 25 mM sodium phosphate pH 6.8, 1% v/v DMSO-d6, 5 °C

## COc1cc2nc(N3CCN(C(=O)C4COc5ccccc5O4)CC3)nc(N)c2cc1OC (centres unmarked) [doxazosin]
[1]
  fold-change in half-time of amyloid formation at 50 μM: 1.61 ± 0.29 fold

## Cc1ccc([C@@H]2O[C@H](CO)[C@@H](O)[C@H](O)[C@H]2O)cc1Cc1ccc(-c2ccc(F)cc2)s1 [canagliflozin]
[2]
  Kd: > 150 µM
[3]
  ThT fluorescence amyloid assembly assay: only canagliflozin was able to inhibit amyloid formation by the familial S20G variant of IAPP
[4]
  ligand binding (observed by NMR): further evidence that canagliflozin binds IAPP monomers with strong changes in all protons
[1]
  fold-change in half-time of amyloid formation at 50 μM: 1.55 ± 0.22 fold
